{
  "source": "the supplement of paper PMC10307832",
  "assay_in_all_cases": "relative viability (nuclei count vs DMSO), 5 days (fraction); higher = more cells survive",
  "key": {"[1]": {"compound": "C1CSC2=C(C(=O)N1)SC3=C2C=C(C=C3)O [kb NB 142-70] + Nc1ncn([C@H]2C[C@H](O)[C@@H](CO)O2)c(=O)n1 [Decitabine] (partner 2 µM)", "outline": "(§1)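 The day after seeding in 1536-well plates, lung cancer cell lines were treated by pin tool with a single drug, or with a fixed anchor-drug dose together with five library-drug doses (not always all listed) in √10 steps. After 5 days, a combined fix-and-stain solution (final 0.05% Triton X-100, 1% formaldehyde, 1 ug/ml Hoechst) was added. Nuclei counted on 4× images gave relative viability as treated counts over vehicle counts, reported as the median of duplicate plates.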"}, "[2]": {"compound": "C1CSC2=C(C(=O)N1)SC3=C2C=C(C=C3)O [kb NB 142-70] + O=C(CCCCCCC(=O)Nc1ccccc1)NO [Vorinostat] (partner 1 µM)", "outline": "as §1"}, "kb NB 142-70": {"compound": "C1CSC2=C(C(=O)N1)SC3=C2C=C(C=C3)O [kb NB 142-70]", "outline": "(§2)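 Lung cancer cell lines in 1536-well plates were kept overnight at 37 °C, then pinned with five library-drug doses (not always all listed) spaced by √10 on vehicle-anchored plates. After 5 days without medium change, cells were fixed, permeabilised and Hoechst-stained in one step, imaged at 4×, and nuclei were counted with MetaXpress. Viability is treated-well nuclei divided by vehicle-well nuclei, taken as the median over plates. Plates passed only with control CV below 25% and at least one doubling.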"}, "[3]": {"compound": "NCC(=O)Nc1ccc(-n2nc(C(F)(F)F)cc2-c2ccc3c(ccc4ccccc43)c2)cc1", "outline": "as §2"}},
  "data": [
    {"cell line": "UMC-11", "values": [
      {"measurement": "relative viability", "setting": "[1]; first compound 0.1 µM", "result": 0.547},
      {"measurement": "relative viability", "setting": "[1]; first compound 1 µM", "result": 0.639},
      {"measurement": "relative viability", "setting": "[1]; first compound 3.162 µM", "result": 0.378},
      {"measurement": "relative viability", "setting": "[2]; first compound 0.1 µM", "result": 0.39},
      {"measurement": "relative viability", "setting": "[2]; first compound 1 µM", "result": 0.316},
      {"measurement": "relative viability", "setting": "[2]; first compound 3.162 µM", "result": 0.223},
      {"measurement": "relative viability", "setting": "kb NB 142-70; 0.1 µM", "result": 1.03},
      {"measurement": "relative viability", "setting": "kb NB 142-70; 1 µM", "result": 0.973},
      {"measurement": "relative viability", "setting": "kb NB 142-70; 3.162 µM", "result": 0.572},
      {"measurement": "relative viability", "setting": "[3]; 0.02 µM", "result": 0.93},
      {"measurement": "relative viability", "setting": "[3]; 0.06325 µM", "result": 1},
      {"measurement": "relative viability", "setting": "[3]; 0.2 µM", "result": 1.05},
      {"measurement": "relative viability", "setting": "[3]; 0.6325 µM", "result": 1.01},
      {"measurement": "relative viability", "setting": "[3]; 2 µM", "result": 0.931}
    ]}
  ]
}
